Patent US12522614B2, “Topical phosphoinositide 3-kinase inhibitors” (VENTHERA, INC., priority 2019, dated 2026)

Legend:
[1] = Viscosity of topical formulation as prepared; format: physicochemical; settings: gel formulation of Example 8 (Table 2)
Experimental: The liquid excipients, i.e. DMSO, oleic acid, Transcutol® P, and dipropylene glycol were mixed in a 20-mL vial, by vortex agitation. The active ingredient, a compound of formula (I), for example Compound 1.002 was then added, and the vial content was sonicated for 10 minutes to dissolve the compound. […] Hydroxylpropyl cellulose (HPC) was added, and the vial was agitated by vortex for another ten minutes to obtain the gel formulation. The viscosity of the clear gel was measured to be in a range of about 7,000 to 10,000 centipoise (cp).
A solution formulation was prepared, similar to the gel formulations as described in Example 8, without a thickening agent. The viscosity of the solution was 13.4 cp and it can be used as a topical spray or lotion.

[2] = In vitro human skin permeation study of topical gel formulations (Franz diffusion cells); format: in vitro ADME
[3] = In vitro skin permeation study, mouse skin vs. human skin; format: in vitro ADME; settings: Example 8 gel
Experimental: The gel formulation of Example 8 was used to determine the skin permeation through human and mouse skin. It is important to understand the permeation difference between the two types of skin, because mouse skin is used extensively in toxicology studies as well as in early in vivo studies. The skin permeation study was performed in accordance with the method as described in Example 9.

[4] = Study-1, Example 8 gel, human skin, Donor 1, 2 h
[5] = Study-1, Example 8 gel, human skin, Donor 1, 4 h
[6] = Study-1, Example 8 gel, human skin, Donor 1, 8 h
[7] = Study-1, Example 8 gel, human skin, Donor 1, 24 h
[8] = Study-1, Example 8 gel, human skin, Donor 1, 48 h
[9] = Study-1, Example 8 gel, human skin, Donor 2, 2 h
[10] = Study-1, Example 8 gel, human skin, Donor 2, 8 h
[11] = Study-1, Example 8 gel, human skin, Donor 2, 24 h
[12] = Study-1, Example 8 gel, human skin, Donor 2, 48 h
[13] = Study-1, Example 8 gel, human skin, Donor 3, 4 h
[14] = Study-1, Example 8 gel, human skin, Donor 3, 8 h
[15] = Study-1, Example 8 gel, human skin, Donor 3, 24 h
[16] = Study-1, Example 8 gel, human skin, Donor 3, 48 h
[17] = Study-2, gel saturated at 120 mg/mL, human skin, 2 h
[18] = Study-2, gel saturated at 120 mg/mL, human skin, 4 h
[19] = Study-2, gel saturated at 120 mg/mL, human skin, 8 h
[20] = Study-2, gel saturated at 120 mg/mL, human skin, 24 h
[21] = Study-2, gel saturated at 120 mg/mL, human skin, 48 h

CC(=O)Oc1cccc(-c2nc(N3CCOCC3)c3sccc3n2)c1 [Compound 1.002, 3-(4-Morpholinothieno[3,2-d]pyrimidin-2-yl)phenyl Acetate]
Viscosity of the clear gel [1]: 7,000 to 10,000 centipoise (cp) | Effect of oleic acid amount on flux through human skin ([2]; Example 15, gels with 1%, 2%, 5% and 10% oleic acid, FIG. 13): increases as the increase of the amount of oleic acid | Metabolism of Compound 1.002 to MTPP ([2]; Example 15, gels with 1%, 2%, 5% and 10% oleic acid, human skin): Majority of Compound 1.002 metabolized to MTPP | Share of total permeated (MTPP+Compound 1.002) that was Compound 1.002 ([2]; Example 16, three formulations, 24 hour time point): about 10% | Cumulative permeation, Cmpd. 1.002 [2, 4]: 0.00 μg/cm^2 | Hydrolysis of Cmpd. 1.002 to MTPP [2, 4]: 100% | Cumulative permeation, Cmpd. 1.002 [2, 5]: 0.00 μg/cm^2 | Hydrolysis of Cmpd. 1.002 to MTPP [2, 5]: 100% | Cumulative permeation, Cmpd. 1.002 [2, 6]: 0.00 μg/cm^2 | Hydrolysis of Cmpd. 1.002 to MTPP [2, 6]: 100% | Cumulative permeation, Cmpd. 1.002 [2, 7]: 13.47 μg/cm^2 | Hydrolysis of Cmpd. 1.002 to MTPP [2, 7]: 82.9% | Cumulative permeation, Cmpd. 1.002 [2, 8]: 85.01 μg/cm^2 | Hydrolysis of Cmpd. 1.002 to MTPP [2, 8]: 58.5% | Cumulative permeation, Cmpd. 1.002 [2, 9]: 0.00 μg/cm^2 | Hydrolysis of Cmpd. 1.002 to MTPP [2, 9]: 100% | Cumulative permeation, Cmpd. 1.002 ([2]; Study-1, Example 8 gel, human skin, Donor 2, 4 h): 0.00 μg/cm^2 | Cumulative permeation, Cmpd. 1.002 [2, 10]: 1.09 μg/cm^2 | Hydrolysis of Cmpd. 1.002 to MTPP [2, 10]: 87.0% | Cumulative permeation, Cmpd. 1.002 [2, 11]: 15.44 μg/cm^2 | Hydrolysis of Cmpd. 1.002 to MTPP [2, 11]: 83.6% | Cumulative permeation, Cmpd. 1.002 [2, 12]: 82.83 μg/cm^2 | Hydrolysis of Cmpd. 1.002 to MTPP [2, 12]: 59.6% | Cumulative permeation, Cmpd. 1.002 [2, 13]: 0.00 μg/cm^2 | Hydrolysis of Cmpd. 1.002 to MTPP [2, 13]: 100% | Cumulative permeation, Cmpd. 1.002 [2, 14]: 0.00 μg/cm^2 | Hydrolysis of Cmpd. 1.002 to MTPP [2, 14]: 100% | Cumulative permeation, Cmpd. 1.002 [2, 15]: 5.18 μg/cm^2 | Hydrolysis of Cmpd. 1.002 to MTPP [2, 15]: 92.0% | Cumulative permeation, Cmpd. 1.002 [2, 16]: 70.87 μg/cm^2 | Hydrolysis of Cmpd. 1.002 to MTPP [2, 16]: 65.5% | Amount of permeated Compound 1.002 metabolized to MTPP ([2]; Study-1 and Study-2, human skin, first 24-hour period): 82%-100% | Cumulative permeation, Cmpd. 1.002 [2, 17]: 0.00 μg/cm^2 | Hydrolysis of Cmpd. 1.002 to MTPP [2, 17]: 100% | Cumulative permeation, Cmpd. 1.002 [2, 18]: 0.00 μg/cm^2 | Hydrolysis of Cmpd. 1.002 to MTPP [2, 18]: 100% | Cumulative permeation, Cmpd. 1.002 [2, 19]: 0.00 μg/cm^2 | Hydrolysis of Cmpd. 1.002 to MTPP [2, 19]: 100% | Cumulative permeation, Cmpd. 1.002 [2, 20]: 0.00 μg/cm^2 | Hydrolysis of Cmpd. 1.002 to MTPP [2, 20]: 100% | Cumulative permeation, Cmpd. 1.002 [2, 21]: 78.10 μg/cm^2 | Hydrolysis of Cmpd. 1.002 to MTPP [2, 21]: 83.9% | Permeation through human skin relative to MTPP ([2]; Study-3, saturated gel formulations, 48 hour period, FIG. 4): about 6 times | Permeation through mouse skin compared with human skin ([3]; 48 hours, FIG. 5): approximately three times higher | Metabolism of Compound 1.002 to MTPP in human and mouse skin ([3]; both skin types): proceeded equally well
